In US20100210467A1, “AGENT FOR IMPROVING SUGARCANE BRIX AND METHOD OF PROMOTING SUGARCANE RIPENING USING THE SAME” (Kumiai Chemical Industry Co., Ltd., priority 2007, published 2010):

Legend:
Format in all cases: in vivo
sugarcane [1] = assay: Example 2: sugar content of sugarcane stem juice after spraying from an aircraft, field test in Brazil; conditions: after 30 days of spraying
Protocol: (§1) In accordance with “NORMAS DE AVALIAçÃO DA […] DA CANA-DE-AçÚCAR” used in Brazilian sugar refining plants as Standard for quality evaluation of sugarcane, the analysis on the sugar content in the squeezed juice of sugarcane stem was carried out for Brix value, sugar content in sugarcane (PC), and total sugar amount recoverable from sugarcane stem (ATR) as follows.
(§2) Brix was measured according to a digital refractometer. PC was calculated according to the equation (1). ATR was calculated according to the equation (5).
At the time the Brix value of sugarcane grown in a sugarcane cultivated area in Brazil (an average Brix value in the harvesttime being 21%) became 81% of the aforesaid average Brix value, a bispyribac-sodium formulation (a commercially available product, a tradename “NOMINEE 400SC”) was diluted with water so that the amount of the effective ingredient in 30 liters of the spraying liquid could be equal to the used amount shown in Table 3, and the liquid was sprayed over the test area from an air-craft at a rate of 30 liters per hectare.
In a control area, a known fluazifop formulation (a commercially available product, a tradename “[…]”) was similarly sprayed.
Next, 5 individual sugarcanes were cut from 5 locations in each area, i.e. 25 sugarcanes from each area, on the initial day of spraying and after 30 days of spraying, and thereafter the stems were squeezed and sugar was recovered from the juice to obtain the yield. The yield after 30 days of spraying was compared with the yield of the initial day of spraying and the rate of increase (%) was calculated. The analysis on the sugar content in the squeezed juice of sugarcane stems was carried out similarly as in the case of Example 1.

sugarcane [2] = assay: Example 5: sugar content of sugarcane stem juice after bispyribac-sodium and/or gibberellin spraying, field test in Brazil; conditions: 20 g/ha
Protocol: as §1, §2
At the time the Brix value of sugarcane grown in a sugarcane cultivated area in Brazil (an average Brix value in the harvesttime being 18%) became 88% of the aforesaid average Brix value, a bispyribac-sodium formulation (a commercially available product, a tradename, “NOMINEE 400SC”) and a gibberellin formulation (a commercially available product, a tradename, “PRO-GIBB”) were admixed together and diluted with water or separately diluted with water so that the amount of the effective ingredient in 105 liters of each of the spraying liquids could be equal to the used amount shown in Table 8, and each liquid was sprayed above the plant by the aid of a CO2-pressurized back pack sprayer to the test area at a rate of 105 liters per hectare.
(§3) In a control area, a known sulfometuron-methyl formulation (a commercially available product, a tradename “CURAVIAL”) was similarly sprayed.
Next, 20 individual sugarcanes were cut from each area on the initial day of spraying, after 15 days of spraying, after 30 days of spraying and after 45 days of spraying, and thereafter the stems were squeezed and sugar was recovered from the juice to obtain the yield. Each yield was compared with the yield of the initial day of spraying and the rate of increase (%) was calculated. The analysis on the sugar content in the squeezed juice of sugarcane stems was carried out similarly as in the case of Example 1.

sugarcane [3] = assay: Example 1: sugar content of sugarcane stem juice after power-sprayer application, field test in Brazil
Protocol: With respect to sugarcane grown in a sugarcane cultivated area in Brazil (an average Brix value in the harvesttime being 18%), a juice was collected from 5 middle internodes selected at random in the sugarcane stem and the Brix value was measured according to a usual method. At the time the measured Brix value became 82% of the aforementioned average Brix value, a bispyribac-sodium formulation (a commercially available product, a tradename “NOMINEE 400SC”) was diluted with water so that the amount of the effective ingredient in 74 liters of the spraying liquid could be equal to the used amount shown in Table 1. The liquid was then sprayed above the plant by the aid of a power sprayer to a test area at a rate of 74 liters per hectare.
as §3
Next, 10 individual sugarcanes were cut from each area on the initial day of spraying, after 30 days of spraying and after 45 days of spraying, and thereafter the stem was squeezed and sugar was recovered from the juice to obtain the yield. Each yield was compared with the yield of the initial day of spraying and the rate of increase (%) was calculated.
as §1, §2
S denotes a sugar content in the extracted liquid and is calculated according to the equation (2). F denotes an amount of fibers in sugarcane and is calculated according to the equation (3). C denotes a conversion coefficient from the sugar content in the extracted liquid to an absolute amount and is calculated according to the equation (4).
LAI denotes a measured value by the digital saccharimeter after clarification of the juice by a clarifying mixture made from aluminum.
PBU denotes the mass of a wet bagasse exhausted from a pressing machine in the squeezed step of sugarcane stem.
ARC denotes an amount of reducing sugar of sugarcane and is calculated from the following equation (6).
AR denotes an amount of reducing sugar in the extracted liquid and is calculated from the following equation (7).

[4] = 16 g/ha, after 30 days of spraying
[5] = 16 g/ha, after 45 days of spraying
[6] = 35 g/ha, after 30 days of spraying
[7] = 35 g/ha, after 45 days of spraying

COc1cc(OC)nc(Oc2cccc(Oc3nc(OC)cc(OC)n3)c2C(=O)O)n1 [Bispyribac-sodium]
ATR increased rate from the initial day of spraying (sugarcane [1]; 25 g/ha): 22.3%
Brix increased rate from the initial day of spraying (sugarcane [1]; 25 g/ha): 19.8%
Concentration of soluble solid matter, Brix (sugarcane [1]; 25 g/ha): 19.9%
PC increased rate from the initial day of spraying (sugarcane [1]; 25 g/ha): 24.1%
Sugar content in sugarcane, PC (sugarcane [1]; 25 g/ha): 14.6%
Total sugar amount recoverable from 1 kg of stem, ATR (sugarcane [1]; 25 g/ha): 141.8 g
ATR increased rate from the initial day of spraying (sugarcane [1]; 30 g/ha): 22.1%
Brix increased rate from the initial day of spraying (sugarcane [1]; 30 g/ha): 21.6%
Concentration of soluble solid matter, Brix (sugarcane [1]; 30 g/ha): 20.8%
PC increased rate from the initial day of spraying (sugarcane [1]; 30 g/ha): 25.2%
Sugar content in sugarcane, PC (sugarcane [1]; 30 g/ha): 15.6%
Total sugar amount recoverable from 1 kg of stem, ATR (sugarcane [1]; 30 g/ha): 149.0 g
ATR increased rate from the initial day of spraying (sugarcane [2]; after 15 days of spraying): 6.2%
Brix increased rate from the initial day of spraying (sugarcane [2]; after 15 days of spraying): 4.5%
Concentration of soluble solid matter, Brix (sugarcane [2]; after 15 days of spraying): 16.2%
Total sugar amount recoverable from 1 kg of stem, ATR (sugarcane [2]; after 15 days of spraying): 112.5 g
ATR increased rate from the initial day of spraying (sugarcane [2]; after 30 days of spraying): 17.3%
Brix increased rate from the initial day of spraying (sugarcane [2]; after 30 days of spraying): 11.7%
Concentration of soluble solid matter, Brix (sugarcane [2]; after 30 days of spraying): 17.3%
Total sugar amount recoverable from 1 kg of stem, ATR (sugarcane [2]; after 30 days of spraying): 124.2 g
ATR increased rate from the initial day of spraying (sugarcane [2]; after 45 days of spraying): 19.1%
Brix increased rate from the initial day of spraying (sugarcane [2]; after 45 days of spraying): 12.9%
Concentration of soluble solid matter, Brix (sugarcane [2]; after 45 days of spraying): 17.5%
Total sugar amount recoverable from 1 kg of stem, ATR (sugarcane [2]; after 45 days of spraying): 126.1 g
ATR increased rate from the initial day of spraying (sugarcane [3]; [4]): 23.1%
Brix increased rate from the initial day of spraying (sugarcane [3]; [4]): 23.0%
Concentration of soluble solid matter, Brix (sugarcane [3]; [4]): 18.4%
PC increased rate from the initial day of spraying (sugarcane [3]; [4]): 25.7%
Sugar content in sugarcane, PC (sugarcane [3]; [4]): 13.0%
Total sugar amount recoverable from 1 kg of stem, ATR (sugarcane [3]; [4]): 129.7 g
ATR increased rate from the initial day of spraying (sugarcane [3]; [5]): 44.9%
Brix increased rate from the initial day of spraying (sugarcane [3]; [5]): 41.0%
Concentration of soluble solid matter, Brix (sugarcane [3]; [5]): 21.1%
PC increased rate from the initial day of spraying (sugarcane [3]; [5]): 50.9%
Sugar content in sugarcane, PC (sugarcane [3]; [5]): 15.5%
Total sugar amount recoverable from 1 kg of stem, ATR (sugarcane [3]; [5]): 152.7 g
ATR increased rate from the initial day of spraying (sugarcane [3]; [6]): 32.0%
Brix increased rate from the initial day of spraying (sugarcane [3]; [6]): 29.5%
Concentration of soluble solid matter, Brix (sugarcane [3]; [6]): 20.5%
PC increased rate from the initial day of spraying (sugarcane [3]; [6]): 35.9%
Sugar content in sugarcane, PC (sugarcane [3]; [6]): 14.7%
Total sugar amount recoverable from 1 kg of stem, ATR (sugarcane [3]; [6]): 145.1 g
ATR increased rate from the initial day of spraying (sugarcane [3]; [7]): 42.1%
Brix increased rate from the initial day of spraying (sugarcane [3]; [7]): 37.1%
Concentration of soluble solid matter, Brix (sugarcane [3]; [7]): 21.7%
PC increased rate from the initial day of spraying (sugarcane [3]; [7]): 47.6%
Sugar content in sugarcane, PC (sugarcane [3]; [7]): 15.9%
Total sugar amount recoverable from 1 kg of stem, ATR (sugarcane [3]; [7]): 156.2 g
